{"source": "patent US12049439B2", "about": "(OrsoBio, Inc., priority 2018, dated 2024)", "note": "pEC50: −log10 of the molar value.", "data": [{"test_system": "PC-3 cells", "test": "PC-3 Oxygen Rate Consumption (OCR) Assay", "assay_type": "cell-based", "conditions": "Homo sapiens, 0.05 h, medium with 2% FBS, OCR at 3-min post-injection normalized to % increase over DMSO-treated cells, concentration for half-maximal OCR increase, read-out: EC50-PC3-OCR-FBS-3min", "procedure": "PC-3 Oxygen Rate Consumption (OCR) Assay Procedure:\nOne day before the assay, PC-3 cells were seeded at 2.5×10^4 cells/160 μL/well in a 96-well XFe96 cell plate, part of a FlexPak containing a cell plate and a cartridge (Agilent, Sunnyvale, CA). The cells were incubated overnight at 37° C. in a 5% CO2 and 90% humidity incubator with F12K culture medium (ThermoFisher Scientific/Invitrogen, Grand Island, NY) containing 10% FBS and 1% penicillin/streptomycin. On the day of the assay, the cells were washed twice with 300 µL/well Medium A [XF assay medium (Agilent) supplemented 10 mM glucose, 1 mM pyruvate, and 2% fetal bovine serum (FBS)], and incubated with 175 µL/well Media A for 1 hr in a 37° C., non-CO2 incubator prior to the measurement of cellular respiration. Compounds of interests were prepared in 1:2 serial dilutions with 100% DMSO and then further diluted into 8× working stock with Media A prior to being loaded to Injection Port A on a XFe96 Analyzer (Agilent). Six replicates were used for each treatment. The cartridge was calibrated in the XFe96 Analyzer 30 minute prior to the measurement of cellular respiration. Basal levels of OCR were measured three times, each using a “3-minute mixing/3-minute measurement” program. The compound effect was measured immediately after compound injection from Injection Port A, and OCR was monitored continuously 10 times, each time using a “1-minute mixing/2-minute measurement” program for a total of 30 minutes post compound injection. The level of OCR at 3-min post-injection was normalized to % increase over DMSO-treated cells. The concentration of compound required to reach the half-maximal OCR increase was defined as EC50 Table 2 contains PC3 OCR EC50 values for the compounds disclosed.", "values": [{"smiles": "CC(C)(C)S(=O)(=O)Nc1cc(C#N)ccc1C(=O)NC12CC(c3ccccc3)(C1)C2", "note": "[Example 98, 4-cyano-2-((1,1-dimethylethyl)sulfonamido)-N-(3-phenylbicyclo[1.1.1]pentan-1-yl)benzamide]", "pEC50": 5.70}, {"smiles": "CS(=O)(=O)c1ccc(S(=O)(=O)Nc2ccc(C(F)(F)F)cc2C(=O)NC23CC(C(F)(F)F)(C2)C3)cc1", "note": "[Example 86, 2-((4-(methylsulfonyl)phenyl)sulfonamido)-5-(trifluoromethyl)-N-(3-(trifluoromethyl)bicyclo[1.1.1]pentan-1-yl)benzamide]", "pEC50": 5.08}, {"smiles": "CS(=O)(=O)c1ccc(NS(=O)(=O)c2ccc(S(F)(F)(F)(F)F)cc2)c(C(=O)NC23CC(C(F)(F)F)(C2)C3)c1", "note": "[Example 150, 5-(methylsulfonyl)-2-((4-(pentafluoro-λ^6-sulfanyl)phenyl)sulfonamido)-N-(3-(trifluoromethyl)bicyclo[1.1.1]pentan-1-yl)benzamide]", "pEC50": "≤ 4.70"}, {"smiles": "CS(=O)(=O)Nc1ccc(F)cc1C(=O)NC12CC(C(F)(F)F)(C1)C2", "note": "[Example 140, 5-fluoro-2-(methylsulfonamido)-N-(3-(trifluoromethyl)bicyclo[1.1.1]pentan-1-yl)benzamide]", "pEC50": 4.44}, {"smiles": "CCP(=O)(CC)c1ccc(S(=O)(=O)Nc2cc(C(F)(F)F)ccc2C(=O)NC23CC4CC(CC(C#N)(C4)C2)C3)cc1", "note": "[Example 181]", "pEC50": 3.94}, {"smiles": "CC(C)(C)c1ccc(C(=O)NC23CC(c4ccccc4)(C2)C3)c(NS(=O)(=O)c2ccc(S(C)(=O)=O)cc2)c1", "note": "[Example 15, 4-(tert-butyl)-2-((4-(methylsulfonyl)phenyl)sulfonamido)-N-(3-phenylbicyclo[1.1.1]pentan-1-yl)benzamide]", "pEC50": 4.96}, {"smiles": "O=C(NC12CCC(C(F)(F)F)(CC1)CC2)c1ccc(OC(F)(F)F)cc1NS(=O)(=O)C1CCS(=O)(=O)CC1", "note": "[Example 240, 2-((1,1-dioxidotetrahydro-2H-thiopyran)-4-sulfonamido)-4-(trifluoromethoxy)-N-(4-(trifluoromethyl)bicyclo[2.2.2]octan-1-yl)benzamide]", "pEC50": 5.52}, {"smiles": "CC(C)(C)S(=O)(=O)c1ccc(S(=O)(=O)Nc2cc(F)ccc2C(=O)NC23CC(C(F)(F)F)(C2)C3)cc1", "note": "[Example 152, 2-((4-(tert-butylsulfonyl)phenyl)sulfonamido)-4-fluoro-N-(3-(trifluoromethyl)bicyclo[1.1.1]pentan-1-yl)benzamide]", "pEC50": 5.95}, {"smiles": "CS(=O)(=O)c1ccc(S(=O)(=O)Nc2cc(C(F)(F)F)ccc2C(=O)NC23CC(c4ccccc4)(C2)C3)cc1", "note": "[Example 11, 2-((4-(methylsulfonyl)phenyl)sulfonamido)-N-(3-phenylbicyclo[1.1.1]pentan-1-yl)-4-(trifluoromethyl)benzamide]", "pEC50": 5.72}, {"smiles": "CC(C)S(=O)(=O)Nc1ccc(C(F)(F)F)cc1C(=O)NC12CCC(C#N)(CC1)CC2", "note": "[Example 72, N-(4-cyanobicyclo[2.2.2]octan-1-yl)-2-((1-methylethyl)sulfonamido)-5-(trifluoromethyl)benzamide]", "pEC50": 5.40}, {"smiles": "CS(=O)(=O)Nc1cc(OC(F)(F)F)ccc1C(=O)NC12CCC(C#N)(CC1)CC2", "note": "[Example 203, N-(4-cyanobicyclo[2.2.2]octan-1-yl)-2-(methylsulfonamido)-4-(trifluoromethoxy)benzamide]", "pEC50": 4.64}, {"smiles": "N#Cc1ccc(C(=O)NC23CC(C(F)(F)F)(C2)C3)c(NS(=O)(=O)N2CCC2)c1", "note": "[Example 247, 2-(azetidine-1-sulfonamido)-4-cyano-N-(3-(trifluoromethyl)bicyclo[1.1.1]pentan-1-yl)benzamide]", "pEC50": 5.32}, {"smiles": "CC(C)(C)S(=O)(=O)Nc1ccc(C#N)cc1C(=O)NC12CCC(C#N)(CC1)CC2", "note": "[Example 123, 5-cyano-N-(4-cyanobicyclo[2.2.2]octan-1-yl)-2-((1,1-dimethylethyl)sulfonamido)benzamide]", "pEC50": 5.32}, {"smiles": "CS(=O)(=O)Nc1ccc(C#N)cc1C(=O)NC12CCC(C(F)(F)F)(CC1)CC2", "note": "[Example 229, 5-cyano-2-(methylsulfonamido)-N-(4-(trifluoromethyl)bicyclo[2.2.2]octan-1-yl)benzamide]", "pEC50": 5.35}, {"smiles": "CS(=O)(=O)c1ccc(S(=O)(=O)Nc2cc(C(F)(F)F)ccc2C(=O)NC23CC4CC(CC(C4)C2)C3)cc1", "note": "[Example 10, N-((3s,5s,7s)-adamantan-1-yl)-2-((4-(methylsulfonyl)phenyl)sulfonamido)-4-(trifluoromethyl)benzamide]", "pEC50": 5.91}, {"smiles": "CC(C)(C)S(=O)(=O)c1ccc(S(=O)(=O)Nc2cc(F)ccc2C(=O)NC23CC(C#N)(C2)C3)cc1", "note": "[Example 153, 2-((4-(tert-butylsulfonyl)phenyl)sulfonamido)-N-(3-cyanobicyclo[1.1.1]pentan-1-yl)-4-fluorobenzamide]", "pEC50": 4.97}, {"smiles": "CS(=O)(=O)c1ccc(S(=O)(=O)Nc2cc(Cl)c(Cl)cc2C(=O)NC23CC(C(F)(F)F)(C2)C3)cc1", "note": "[Example 92, 4,5-dichloro-2-((4-(methylsulfonyl)phenyl)sulfonamido)-N-(3-(trifluoromethyl)bicyclo[1.1.1]pentan-1-yl)benzamide]", "pEC50": 5.09}, {"smiles": "N#CC12CCC(NC(=O)c3cc(C(F)(F)F)ccc3NS(=O)(=O)N3CC(OC(F)F)C3)(CC1)CC2", "note": "[Example 224, N-(4-cyanobicyclo[2.2.2]octan-1-yl)-2-((3-(difluoromethoxy)azetidine)-1-sulfonamido)-5-(trifluoromethyl)benzamide]", "pEC50": 5.62}, {"smiles": "CS(=O)(=O)Nc1ccc(C(F)(F)F)cc1C(=O)NC12CCC(C(F)(F)F)(CC1)CC2", "note": "[Example 183, 2-(methylsulfonamido)-5-(trifluoromethyl)-N-(4-(trifluoromethyl)bicyclo[2.2.2]octan-1-yl)benzamide]", "pEC50": 6.08}, {"smiles": "O=C(NC12CCC(C(F)(F)F)(CC1)CC2)c1cc(C(F)(F)F)ccc1NS(=O)(=O)C1CCS(=O)(=O)CC1", "note": "[Example 239, 2-((1,1-dioxidotetrahydro-2H-thiopyran)-4-sulfonamido)-5-(trifluoromethyl)-N-(4-(trifluoromethyl)bicyclo[2.2.2]octan-1-yl)benzamide]", "pEC50": 5.11}, {"smiles": "CS(=O)(=O)c1ccc(S(=O)(=O)Nc2cc(F)ccc2C(=O)NC23CC(c4ccccc4)(C2)C3)cc1", "note": "[Example 12, 4-fluoro-2-((4-(methylsulfonyl)phenyl)sulfonamido)-N-(3-phenylbicyclo[1.1.1]pentan-1-yl)benzamide]", "pEC50": 5.16}, {"smiles": "CS(=O)(=O)Nc1cc(Br)ccc1C(=O)NC12CC(C1)C2", "note": "[Example 47, N-(bicyclo[1.1.1]pentan-1-yl)-4-bromo-2-(methylsulfonamido)benzamide]", "pEC50": 4.76}, {"smiles": "CC(C)(C)S(=O)(=O)Nc1ccc(C(F)(F)F)cc1C(=O)NC12CCC(C(=O)O)(CC1)CC2", "note": "[Example 156, 4-(2-((1,1-dimethylethyl)sulfonamido)-5-(trifluoromethyl)benzamido)bicyclo[2.2.2]octane-1-carboxylic Acid]", "pEC50": "≤ 3.70"}, {"smiles": "CS(=O)(=O)Nc1ccc(C(F)(F)F)cc1C(=O)NC12C3C4C1C1C2C3C41C#N", "note": "[Example 187, N-((2r,3R,4r,5S)-4-cyanocuban-1-yl)-2-(methylsulfonamido)-5-(trifluoromethyl)benzamide]", "pEC50": 4.94}, {"smiles": "CS(=O)(=O)Nc1ccc(SC(F)(F)F)cc1C(=O)NC12CCC(C#N)(CC1)CC2", "note": "[Example 235, N-(4-cyanobicyclo[2.2.2]octan-1-yl)-2-(methylsulfonamido)-5-((trifluoromethyl)thio)benzamide]", "pEC50": 5.34}]}]}
